Columns and labels:
BR449 nitrile hydratase = target: T1, BR449 nitrile hydratase (Bacillus sp. BR449, UniProt Q9L541+Q9L542); test: Effect of additions during growth on nitrile hydratase activity of BR449; assay type: cell-based; details: for Nitrile hydratase Specific Activity: BR449 grown with divalent metal salt 20 mg/l
T1 construct: alpha 214 aa, beta 229 aa
T1 sequence (Q9L541 1-214): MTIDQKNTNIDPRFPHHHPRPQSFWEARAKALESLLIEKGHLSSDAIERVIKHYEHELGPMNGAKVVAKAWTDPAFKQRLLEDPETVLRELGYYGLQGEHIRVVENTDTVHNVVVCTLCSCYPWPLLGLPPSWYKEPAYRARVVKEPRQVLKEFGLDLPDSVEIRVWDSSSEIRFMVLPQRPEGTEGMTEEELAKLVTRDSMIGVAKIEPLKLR
T1 sequence (Q9L542 1-229): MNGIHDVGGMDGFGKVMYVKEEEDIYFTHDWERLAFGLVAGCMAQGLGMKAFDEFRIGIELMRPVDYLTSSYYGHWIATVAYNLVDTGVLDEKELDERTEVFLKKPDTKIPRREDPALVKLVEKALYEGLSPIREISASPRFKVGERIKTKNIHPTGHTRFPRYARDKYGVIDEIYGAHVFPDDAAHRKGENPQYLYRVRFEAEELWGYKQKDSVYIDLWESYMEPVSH
Procedure: (§1) Bacillus sp. BR449 (ATCC 202119) was grown in OP medium at pH 7.2 which contained per liter: KH2 PO4, 1 g; K2 HPO4, 0.5 g; yeast extract, 1 g; malt extract, 1 g; peptone 2 g; glycerol, 3 g; casamino acids, 0.1 g. The isolate was grown at 60° C. using turbidity to monitor culture density. Divalent metal salts were added to the growth medium where indicated in concentrations of 20 mg/l.
(§2) Nitrile hydratase activity was measured using whole cells in assays containing 20 mg (dry wt) cells, in 1 ml 0.5 M acrylonitrile and potassium phosphate buffer, containing 0.5 M acrylonitrile, pH 7.5. The reaction mixture was incubated in a water bath at 50° C. with shaking for 10 minutes, and the reaction stopped by addition of 0.2 ml 2 N HCl. Acrylamide formation was measured using HPLC by injection into a Novapak C-18 reverse phase column and eluted with 1:12 acetonitrile:5mM potassium phosphate buffer, pH 2.5. Peaks were identified at 200 nm with a Waters (Newton, Mass.) variable wavelength detector and analyzed with reference to chemical standards. One unit of nitrile hydratase activity is defined as the formation of one μmole acrylamide per minute. Amidase activity was measured in the same manner using 0.5 M acrylamide as substrate by measurement of acrylic acid formation.
(§3) Divalent metal ions were added during growth of isolate BR449 to provide indications of metals stimulatory to nitrile hydratase production.

amidase = test: Effect of metal ions during growth on amidase activity of BR449; assay type: cell-based, Bacillus sp. BR449; details: BR449 grown with divalent metal salt 20 mg/l
Procedure: as §1, §2, §3

Bacillus sp. BR449 = test: Effect of metal ions on growth (total cells) of BR449; assay type: cell-based; details: divalent metal salt 20 mg/l in growth medium
Procedure: as §1

hydratase of BR449 = target: T2, hydratase of BR449 (Bacillus sp. BR449, UniProt Q9L541+Q9L542); test: Nitrile hydratase activity with varied acrylonitrile concentration (substrate inhibition); assay type: biochemical; details: 10% acrylonitrile, assay at 50° C.
T2 construct: alpha 214 aa, beta 229 aa
T2 sequence (Q9L541 1-214): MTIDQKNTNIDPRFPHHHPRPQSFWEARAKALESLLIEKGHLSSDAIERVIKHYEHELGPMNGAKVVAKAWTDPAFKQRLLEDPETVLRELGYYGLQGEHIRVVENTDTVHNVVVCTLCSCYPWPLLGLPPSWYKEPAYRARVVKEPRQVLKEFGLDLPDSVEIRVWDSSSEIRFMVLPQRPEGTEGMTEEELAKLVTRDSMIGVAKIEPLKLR
T2 sequence (Q9L542 1-229): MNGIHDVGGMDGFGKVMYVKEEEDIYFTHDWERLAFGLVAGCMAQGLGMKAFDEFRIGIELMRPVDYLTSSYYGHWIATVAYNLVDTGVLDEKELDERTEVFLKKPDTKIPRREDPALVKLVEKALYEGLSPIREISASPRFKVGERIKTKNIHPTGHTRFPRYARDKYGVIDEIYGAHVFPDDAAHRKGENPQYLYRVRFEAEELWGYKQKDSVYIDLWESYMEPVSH
Procedure: as §2, with “Nitrile hydratase activity was measured using whole cells in assays containing 20 mg (dry wt) cells, in 1 ml 0.5 M acrylonitrile and potassium phosphate buffer, containing 0.5 M acrylonitrile, pH 7.5.” left out

[1] = Enzyme stability study, whole cells incubated in buffer at varied temperatures; assay type: physicochemical, Bacillus sp. BR449; details: two hour incubations in buffer, assay at 50° C.
Procedure: For studies of nitrile hydratase stability, whole cells of BR449 were incubated at varied temperatures in 50 mM potassium phosphate buffer, pH 7.5, following which the nitrile hydratase assay was carried out at 50° C.

Molecule: [Mn+2] [Mn^2+]
- Nitrile hydratase Specific Activity (BR449 nitrile hydratase): 2.2 U/mg
- Amidase Specific Activity (amidase): 2.1 U/mg
- Total Cells (Bacillus sp. BR449): 65 mt/1, dry weight

Molecule: [Cu+2] [Cu^2+]
- Nitrile hydratase Specific Activity (BR449 nitrile hydratase): 1.9 U/mg
- Amidase Specific Activity (amidase): 1.5 U/mg
- Total Cells (Bacillus sp. BR449): 90 mt/1, dry weight

Molecule: C=CC#N [acrylonitrile]
- Induction of hydratase activity (BR449 nitrile hydratase; addition during BR449 growth): without effect
- inhibition of BR449 hydratase (substrate inhibition) (hydratase of BR449): 47%

Molecule: [Fe+2] [Fe^2+]
- Nitrile hydratase Specific Activity (BR449 nitrile hydratase): 4.3 U/mg
- Amidase Specific Activity (amidase): 2.3 U/mg
- Total Cells (Bacillus sp. BR449): 490 mt/1, dry weight

Molecule: [Co+2] [Co^2+]
- Nitrile hydratase Specific Activity (BR449 nitrile hydratase): 71.5 U/mg
- Amidase Specific Activity (amidase): 9.7 U/mg
- Total Cells (Bacillus sp. BR449): 225 mt/1, dry weight

Molecule: [Ni+2] [Ni^2+]
- Nitrile hydratase Specific Activity (BR449 nitrile hydratase): 6.8 U/mg
- Amidase Specific Activity (amidase): 3.4 U/mg
- Total Cells (Bacillus sp. BR449): 80 mt/1, dry weight

B1: BR449 nitrile hydratase: cobalt-containing nitrile hydratase of Bacillus sp. BR449, alpha subunit SEQ ID NO:9, beta subunit SEQ ID NO:11 (protein)
alpha: MTIDQKNTNIDPRFPHHHPRPQSFWEARAKALESLLIEKGHLSSDAIERVIKHYEHELGPMNGAKVVAKAWTDPAFKQRLLEDPETVLRELGYYGLQGEHIRVVENTDTVHNVVVCTLCSCYPWPLLGLPPSWYKEPAYRARVVKEPRQVLKEFGLDLPDSVEIRVWDSSSEIRFMVLPQRPEGTEGMTEEELAKLVTRDSMIGVAKIEPLKLR
beta: MNGIHDVGGMDGFGKVMYVKEEEDIYFTHDWERLAFGLVAGCMAQGLGMKAFDEFRIGIELMRPVDYLTSSYYGHWIATVAYNLVDTGVLDEKELDERTEVFLKKPDTKIPRREDPALVKLVEKALYEGLSPIREISASPRFKVGERIKTKNIHPTGHTRFPRYARDKYGVIDEIYGAHVFPDDAAHRKGENPQYLYRVRFEAEELWGYKQKDSVYIDLWESYMEPVSH
- temperature to which the enzyme is stable [1]: ≤ 60 °C

Source: patent US6153415A, “Method for producing amide compounds using a nitrile hydratase from a thermophilic bacillus” (priority 1999, dated 2000)
